These results are taken from ChEMBL document CHEMBL1146723, “Synthesis of benzophenone oxime analogues as inhibitor of secretory phospholipase A(2) with anti-inflammatory activity” (2004).

The subject of one experiment is Daboia russellii. Kind of experiment: (§1) Percentage inhibitory activity against Phospholipase A2 isolated from venom of Vipera russelli. The settings on record: concentration not given here.
The next experiment has as its system Mus musculus. In words: Antiinflammatory activity was evaluated for the increase in weight due to edema was calculated as edema ratio. Type of experiment: functional.
The subject of another experiment is Naja naja. Kind of experiment: (§2) Percentage inhibitory activity against Phospholipase A2 isolated from venom of Naja naja. The settings on record: concentration not given here.
In experiment [1] the test system is Trimeresurus malabaricus. In words: Percentage inhibitory activity against Phospholipase A2 isolated from venom of Trimeresurus malabaricus; NI = No inhibition.
For experiment [2], the target named is Phospholipase A2, major isoenzyme (Sus scrofa) (UniProt P00592). The experiment is described as §1. Conditions: Daboia russellii; concentration not given here.
Chain of Phospholipase A2, major isoenzyme (Sus scrofa) (P00592 23-146 limits assumed): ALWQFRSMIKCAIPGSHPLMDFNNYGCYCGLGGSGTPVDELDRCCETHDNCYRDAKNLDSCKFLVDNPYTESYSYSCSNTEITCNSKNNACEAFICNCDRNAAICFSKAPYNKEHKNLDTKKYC
The target is the same in experiment [3]. Kind of experiment: (§3) Percentage inhibitory activity against Phospholipase A2 isolated from venom of Trimeresurus malabaricus. Conditions: concentration not given here.
Experiment [4] shares this target. Described as §2. Conditions: concentration not given here.
Experiment [5] concerns Trimeresurus malabaricus. The description is as §3. Conditions: concentration not given here.

Molecules are shown by their SMILES. Values joined by “and” are separate entries in the source; they are usually repeats but may differ in a detail not shown here. Equal entries are not always repeated. Active and inactive are the calls of the source. No cut-off for these calls is given here.

`COc1cccc(C(=NO)c2cccc(OC)c2)c1`: the inhibition in the experiment with Daboia russellii is 58.7%; in the experiment on Naja naja, 36.9%. For the same compound, the Edema ratio in the experiment with Mus musculus was 136 and 142 and 181 and 147 and 149. Moreover, the inhibition result in the experiment with Trimeresurus malabaricus [1] is “inactive”.
Regarding `COc1ccc(/C(=N/O)c2cccc(Cl)c2)cc1OC`, the values for the inhibition in experiment [2], in experiment [3] and in experiment [4] were 85.3%, 72.4% and 90.2%, respectively. Moreover, in the experiment on Mus musculus, the Edema ratio was 101 and 109 and 105 and 106 and 107.
Regarding `Cc1cccc(/C(=N/O)c2ccccc2)c1`, the inhibition with Daboia russellii worked out at 79.2%; in the experiment with Trimeresurus malabaricus [5], 81.6%; in the experiment with Naja naja it was 82.9%. In addition, the Edema ratio with Mus musculus was 102 and 110 and 101 and 103 and 109.
In the case of `COc1ccc(/C(=N/O)c2ccccc2)cc1`, the figures for the inhibition with Daboia russellii and in the experiment with Naja naja were 29.9% and 42.4%, respectively. In addition, the Edema ratio in the experiment with Mus musculus is 180 and 142 and 183 and 147 and 151. Moreover, in the experiment on Trimeresurus malabaricus [1], the inhibition result was “inactive”.

What is called inhibition is the change of the read-out against control, counted positive when it falls.
